# Patent US20250051340A1, “TRIAZOLONE DERIVATIVE SALT AS NEUTROPHIL ELASTASE INHIBITOR” (CHIESI FARMACEUTICI S.P.A., priority 2021, published 2025)
# Read-outs that look alike come from different tables or passages of the source.
# Columns and labels:
# [1] = rat, in vivo
# Description: (§1) In addition, the effects of different (2-{5-Cyano-2-[(R)-6-methoxycarbonyl-7-methyl-3-oxo-8-(3-trifluoromethyl-phenyl)-2,3,5,8-tetrahydro-[1,2,4]triazolo[4,3-a]pyrimidin-5-yl]-phenyl}-ethyl)-trimethyl-ammonium salts on lung function parameters were also assessed in rats by head-out plethysmography in order to compare the potential local adverse effects of each salt of (2-{5-Cyano-2-[(R)-6-methoxycarbonyl-7-methyl-3-oxo-8-(3-trifluoromethyl-phenyl)-2,3,5,8-tetrahydro-[1,2,4]triazolo[4,3-a]pyrimidin-5-yl]-phenyl}-ethyl)-trimethyl-ammonium.
# (§2) The duration of aerosol exposure was of 60 minutes. On the day of dosing, animals were placed into the plethysmograph tubes for at least 30 minutes prior to dosing and respiratory parameters: respiratory rate, tidal volume, and PenH were continuously recorded for at least 30 minutes pre-dose, 60 minutes during dosing (exposure) and 90 minutes post-exposure. The respiratory parameters were recorded every minute for a total period of 3 hours using the EMMS eDacq system (PLY231, EMMS, Bordon, United Kingdom).
# [2] = molecular target: T1, human neutrophil elastase (HNE) (Homo sapiens, UniProt P08246); test: HNE-induced lung injury assay (BAL fluid haemoglobin content); format: in vivo, rat; conditions: i.t.; for % Inhibition of HNE-induced BAL fluid haemoglobin content at 3 μg/Kg / % Inhibition of HNE-induced BAL fluid haemoglobin content at 30 μg/Kg / % Inhibition of HNE-induced BAL fluid haemoglobin content at 300 μg/Kg: male Sprague Dawley rats, wet formulation, 3 h before HNE 100 U/rat, vs HNE-treated vehicle control
# T1 sequence (P08246 30-267): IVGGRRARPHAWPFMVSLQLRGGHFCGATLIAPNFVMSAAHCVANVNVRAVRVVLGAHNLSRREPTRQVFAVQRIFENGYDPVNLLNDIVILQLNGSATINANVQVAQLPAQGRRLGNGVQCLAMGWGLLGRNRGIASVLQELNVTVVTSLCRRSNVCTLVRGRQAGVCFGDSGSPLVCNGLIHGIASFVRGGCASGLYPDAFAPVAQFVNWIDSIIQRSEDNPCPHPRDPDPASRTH
# Description: Then, one hour after the PBS or HNE administration animals were sacrificed and bronchoalveolar lavage (BAL) was performed in order to assess the HNE-induced lung injury measured as haemoglobin concentration. BAL fluid samples were centrifuged at 800 g for 15 min at 4° C. The supernatant was collected, and the pellet was re-suspended in 3 mL of distilled water. A standard curve with known volumes of lysated blood cells was made from a stem solution of lysated blood cells. 150 µL of standards and samples were transferred in duplicate to a 96-well plate and the OD measured at 412 nm. Percentage of compound efficacy (assessed as inhibition of HNE-induced haemoglobin content in BALF) was calculated following this formula: 100−[(mean of haemoglobin concentration of test compound treated rats exposed to HNE)−(mean of haemoglobin concentration of vehicle treated rats exposed to PBS)]/[(mean of haemoglobin concentration of vehicle treated rats exposed to HNE)−(mean of haemoglobin concentration of vehicle treated rats exposed to PBS)]×100.
# [3] = Solubility in water at RT; format: physicochemical
# Description: The complete dissolution of the material was visually observed.
# A saturated solution of hemi-pamoate salt in water at RT was prepared, with a theoretical concentration of about 2 mg/ml. The solid in excess was filtered out and the content of the solution was quantified by LC/UV at different check points until 24 hours.
# [4] = Head-out plethysmography (HOP) assay, lung function parameters; conditions: male Wistar rats, single snout-only inhalation, dry powder, 0.7 and 7 mg/kg, during or after dosing
# Description: as §1, §2
# [5] = thermodynamic from solid, read-out: Solubility
compound,measurement,setting,value
"COC(=O)C1=C(C)N(c2cccc(C(F)(F)F)c2)c2n[nH]c(=O)n2[C@@H]1c1ccc(C#N)cc1CC[N+](C)(C)C.[Br-] [Bromide, (2-{5-Cyano-2-[(R)-6-methoxycarbonyl-7-methyl-3-oxo-8-(3-trifluoromethyl-phenyl)-2,3,5,8-tetrahydro-[1,2,4]triazolo[4,3-a]pyrimidin-5-yl]-phenyl}-ethyl)-trimethyl-ammonium bromide]",% of Reduction of tidal volume,"[1]; male, Wistar",38%
same,increase in PenH area compared to vehicle,"[1]; male, Wistar, 0.55 mg/kg",about 8 fold
same,"increase in respiratory rate, maximum effect","[1]; male, Wistar, 0.55 mg/kg",59%
same,increase in PenH area compared to vehicle,"[1]; male, Wistar, 5.5 mg/kg",~20 fold
same,"reduction in tidal volume, maximum","[1]; male, Wistar, 5.5 mg/kg",38%
"COC(=O)C1=C(C)N(c2cccc(C(F)(F)F)c2)c2n[nH]c(=O)n2[C@@H]1c1ccc(C#N)cc1CC[N+](C)(C)C [Hemi-pamoate, (2-{5-Cyano-2-[(R)-6-methoxycarbonyl-7-methyl-3-oxo-8-(3-trifluoromethyl-phenyl)-2,3,5,8-tetrahydro-[1,2,4]triazolo[4,3-a]pyrimidin-5-yl]-phenyl}-ethyl)-trimethyl-ammonium hemi-pamoate]",% Inhibition of HNE-induced BAL fluid haemoglobin content at 3 μg/Kg,[2],30%
same,% Inhibition of HNE-induced BAL fluid haemoglobin content at 30 μg/Kg,[2]; 30 μg/kg,43%
same,% Inhibition of HNE-induced BAL fluid haemoglobin content at 300 μg/Kg,[2]; 300 μg/kg,80%
same,"inhibition of BAL fluid haemoglobin levels, dry powder, 30 μg/kg","[2]; rats, dry powder formulation, 30 μg/kg, vs HNE-treated vehicle (lactose) control",4%
same,"inhibition of BAL fluid haemoglobin levels, dry powder, 300 μg/kg","[2]; rats, dry powder formulation, 300 μg/kg, vs HNE-treated vehicle (lactose) control",54%
same,"inhibition of BAL fluid haemoglobin levels, dry powder, 600 μg/kg","[2]; rats, dry powder formulation, 600 μg/kg, vs HNE-treated vehicle (lactose) control",60%
same,% of Reduction of tidal volume,[1],No variation of any lung function parameters
same,solubility,[3]; [5],0.17 mg/mL
"COC(=O)C1=C(C)N(c2cccc(C(F)(F)F)c2)c2n[nH]c(=O)n2[C@@H]1c1ccc(C#N)cc1CC[N+](C)(C)C.CS(=O)(=O)[O-] [Methanesulfonate, (2-{5-Cyano-2-[(R)-6-methoxycarbonyl-7-methyl-3-oxo-8-(3-trifluoromethyl-Phenyl)-2,3,5,8-tetrahydro-[1,2,4]triazolo[4,3-a]Pyrimidin-5-yl]-phenyl}-ethyl)-trimethyl-ammonium methanesulfonate]",% Inhibition of HNE-induced BAL fluid haemoglobin content at 3 μg/Kg,[2],19%
same,% Inhibition of HNE-induced BAL fluid haemoglobin content at 30 μg/Kg,[2]; 30 μg/kg,30%
same,% Inhibition of HNE-induced BAL fluid haemoglobin content at 300 μg/Kg,[2]; 300 μg/kg,73%
same,% of Reduction of tidal volume,"[1]; male, Wistar",35-39%
same,increase of PenH compared to vehicle,"[1]; male, Wistar, 0.6 mg/kg",about 8 fold
same,"increase of respiratory rate, peak effect","[1]; male, Wistar, 0.6 mg/kg",32%
same,"reduction of tidal volume, peak effect","[1]; male, Wistar, 0.6 mg/kg",35%
same,increase of PenH compared to vehicle,"[1]; male, Wistar, 6 mg/kg",~16 fold
same,"increase of respiratory rate, peak effect","[1]; male, Wistar, 6 mg/kg",54%
same,"reduction of tidal volume, peak effect","[1]; male, Wistar, 6 mg/kg",39%
same,solubility,[3]; methanesulfonate,>200 mg/mL
same,solubility,[3]; [5],> 200 mg/mL
"(2-{5-Cyano-2-[(R)-6-methoxycarbonyl-7-methyl-3-oxo-8-(3-trifluoromethyl-phenyl)-2,3,5,8-tetrahydro-[1,2,4]triazolo[4,3-a]pyrimidin-5-yl]-phenyl}-ethyl)-trimethyl-ammonium hemi-pamoate","effect on lung function parameters (respiratory rate, tidal volume, PenH)",[4],does not affect any lung function parameters
